From the NIST ThermoML archive (doi:10.1016/j.jct.2013.09.024)
± gives the expanded uncertainty stated by the source.

Assays:
[1] = Liquid, Vibrating tube method
[2] = xn = mol fraction of the nth substance listed; conditions: Liquid, Vibrating tube method, x2 = 0

## CC1(C)C(=O)[C@]2(C)CC[C@H]1C2 [(-)-fenchone]
[1]; 283.15 K, 101 kPa
  mass density: 953.27 ± 0.12 kg/m3
[1]; 283.15 K, 20000 kPa
  mass density: 965.6 ± 1 kg/m3
[1]; 283.15 K, 25000 kPa
  mass density: 968.5 ± 1 kg/m3
[1]; 283.15 K, 30000 kPa
  mass density: 971.3 ± 1 kg/m3
[1]; 283.15 K, 35000 kPa
  mass density: 974 ± 1 kg/m3
[1]; 283.15 K, 40000 kPa
  mass density: 976.6 ± 1 kg/m3
[1]; 298.15 K, 101 kPa
  mass density: 940.67 ± 0.12 kg/m3
[1]; 298.15 K, 20000 kPa
  mass density: 954 ± 1 kg/m3
[1]; 298.15 K, 25000 kPa
  mass density: 957.1 ± 1 kg/m3
[1]; 298.15 K, 30000 kPa
  mass density: 960 ± 1 kg/m3
[1]; 298.15 K, 35000 kPa
  mass density: 962.9 ± 1 kg/m3
[1]; 298.15 K, 40000 kPa
  mass density: 965.7 ± 1 kg/m3
[1]; 313.15 K, 101 kPa
  mass density: 928.04 ± 0.12 kg/m3
[1]; 313.15 K, 20000 kPa
  mass density: 942.3 ± 1 kg/m3
[1]; 313.15 K, 25000 kPa
  mass density: 945.6 ± 1 kg/m3
[1]; 313.15 K, 30000 kPa
  mass density: 948.7 ± 1 kg/m3
[1]; 313.15 K, 35000 kPa
  mass density: 951.8 ± 1 kg/m3
[1]; 313.15 K, 40000 kPa
  mass density: 954.7 ± 1 kg/m3
[1]; 328.15 K, 101 kPa
  mass density: 915.39 ± 0.13 kg/m3
[1]; 328.15 K, 20000 kPa
  mass density: 930.8 ± 1 kg/m3
[1]; 328.15 K, 25000 kPa
  mass density: 934.2 ± 1 kg/m3
[1]; 328.15 K, 30000 kPa
  mass density: 937.6 ± 1 kg/m3
[1]; 328.15 K, 35000 kPa
  mass density: 940.9 ± 1 kg/m3
[1]; 328.15 K, 40000 kPa
  mass density: 944 ± 1 kg/m3

## CCO [ethanol]
[1]; 283.15 K, 101 kPa
  mass density: 797.99 ± 0.13 kg/m3
[1]; 283.15 K, 20000 kPa
  mass density: 813.3 ± 1 kg/m3
[1]; 283.15 K, 25000 kPa
  mass density: 816.8 ± 1 kg/m3
[1]; 283.15 K, 30000 kPa
  mass density: 820.2 ± 1 kg/m3
[1]; 283.15 K, 35000 kPa
  mass density: 823.4 ± 1.1 kg/m3
[1]; 283.15 K, 40000 kPa
  mass density: 826.6 ± 1.1 kg/m3
[1]; 298.15 K, 101 kPa
  mass density: 785.2 ± 0.13 kg/m3
[1]; 298.15 K, 20000 kPa
  mass density: 801.7 ± 1 kg/m3
[1]; 298.15 K, 25000 kPa
  mass density: 805.4 ± 1 kg/m3
[1]; 298.15 K, 30000 kPa
  mass density: 809 ± 1.1 kg/m3
[1]; 298.15 K, 35000 kPa
  mass density: 812.5 ± 1.1 kg/m3
[1]; 298.15 K, 40000 kPa
  mass density: 815.8 ± 1.1 kg/m3
[1]; 313.15 K, 101 kPa
  mass density: 772.15 ± 0.14 kg/m3
[1]; 313.15 K, 20000 kPa
  mass density: 790.1 ± 1 kg/m3
[1]; 313.15 K, 25000 kPa
  mass density: 794.1 ± 1 kg/m3
[1]; 313.15 K, 30000 kPa
  mass density: 797.8 ± 1.1 kg/m3
[1]; 313.15 K, 35000 kPa
  mass density: 801.5 ± 1.1 kg/m3
[1]; 313.15 K, 40000 kPa
  mass density: 805 ± 1.1 kg/m3
[1]; 328.15 K, 101 kPa
  mass density: 758.71 ± 0.14 kg/m3
[1]; 328.15 K, 20000 kPa
  mass density: 778.1 ± 1 kg/m3
[1]; 328.15 K, 25000 kPa
  mass density: 782.4 ± 1.1 kg/m3
[1]; 328.15 K, 30000 kPa
  mass density: 786.4 ± 1.1 kg/m3
[1]; 328.15 K, 35000 kPa
  mass density: 790.3 ± 1.1 kg/m3
[1]; 328.15 K, 40000 kPa
  mass density: 794.1 ± 1.1 kg/m3

## CCO [ethanol] + CC1(C)C(=O)[C@]2(C)CC[C@H]1C2
[2]; 283.15 K, 101 kPa
  mass density: 797.99 ± 0.13 kg/m3
[2]; 283.15 K, 20000 kPa
  mass density: 813.3 ± 1 kg/m3
[2]; 283.15 K, 25000 kPa
  mass density: 816.8 ± 1 kg/m3
[2]; 283.15 K, 30000 kPa
  mass density: 820.2 ± 1 kg/m3
[2]; 283.15 K, 35000 kPa
  mass density: 823.4 ± 1.1 kg/m3
[2]; 283.15 K, 40000 kPa
  mass density: 826.6 ± 1.1 kg/m3
[2]; 298.15 K, 101 kPa
  mass density: 785.2 ± 0.13 kg/m3
[2]; 298.15 K, 20000 kPa
  mass density: 801.7 ± 1 kg/m3
[2]; 298.15 K, 25000 kPa
  mass density: 805.4 ± 1 kg/m3
[2]; 298.15 K, 30000 kPa
  mass density: 809 ± 1.1 kg/m3
[2]; 298.15 K, 35000 kPa
  mass density: 812.5 ± 1.1 kg/m3
[2]; 298.15 K, 40000 kPa
  mass density: 815.8 ± 1.1 kg/m3
[2]; 313.15 K, 101 kPa
  mass density: 772.15 ± 0.14 kg/m3
[2]; 313.15 K, 20000 kPa
  mass density: 790.1 ± 1 kg/m3
[2]; 313.15 K, 25000 kPa
  mass density: 794.1 ± 1 kg/m3
[2]; 313.15 K, 30000 kPa
  mass density: 797.8 ± 1.1 kg/m3
[2]; 313.15 K, 35000 kPa
  mass density: 801.5 ± 1.1 kg/m3
[2]; 313.15 K, 40000 kPa
  mass density: 805 ± 1.1 kg/m3
[2]; 328.15 K, 101 kPa
  mass density: 758.71 ± 0.14 kg/m3
[2]; 328.15 K, 20000 kPa
  mass density: 778.1 ± 1 kg/m3
[2]; 328.15 K, 25000 kPa
  mass density: 782.4 ± 1.1 kg/m3
[2]; 328.15 K, 30000 kPa
  mass density: 786.4 ± 1.1 kg/m3
[2]; 328.15 K, 35000 kPa
  mass density: 790.3 ± 1.1 kg/m3
[2]; 328.15 K, 40000 kPa
  mass density: 794.1 ± 1.1 kg/m3
